Measurements from the supplement of paper PMC6004109.

What was measured:
Conditions in all cases: temperature: 37 °C
[1] = tested on: Candida glabrata ZIM 2365 (RPMI); assay: FICI maximum (fractional inhibitory concentration index, Loewe) (dimensionless); higher = less synergy / more antagonism
Protocol: (§1)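 CLSI M27-A3 checkerboard broth microdilution of an immunomodulatory drug (or amoxicillin) combined with an antifungal against S. cerevisiae and C. glabrata isolates. Growth was read as OD600 after incubation at 37 °C (48 h for the reported MICs). Reported quantities are the FICI (Loewe: MIC50 for azoles and immunomodulators, MIC90 for AMB; ≤0.5 synergy, ≥4 antagonism), as minimum and maximum over the surface, and the Bliss-independence sum of statistically significant ΔE (positive = synergy). Clinical isolates were tested in RPMI; C. glabrata ATCC 2001 and its pdr1Δ mutant were tested in YPD.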

[2] = tested on: Candida glabrata ZIM 2382 (RPMI); assay: as above
Protocol: as §1

[3] = tested on: Candida glabrata ZIM 2369 (RPMI); assay: as above
Protocol: as §1

[4] = tested on: Saccharomyces cerevisiae ZIM 2558 (RPMI); assay: as above
Protocol: as §1

[5] = tested on: Saccharomyces cerevisiae ZIM 2255 (RPMI); assay: as above
Protocol: as §1

[6] = tested on: Saccharomyces cerevisiae ZIM 2260 (RPMI); assay: as above
Protocol: as §1

[7] = tested on: Saccharomyces cerevisiae ZIM 2269 (RPMI); assay: as above
Protocol: as §1

[8] = tested on: Saccharomyces cerevisiae ZIM 2566 (RPMI); assay: as above
Protocol: as §1

[9] = tested on: Candida glabrata ZIM 2385 (RPMI); assay: as above
Protocol: as §1

[10] = tested on: Saccharomyces cerevisiae ZIM 2247 (RPMI); assay: as above
Protocol: as §1

[11] = tested on: Candida glabrata ZIM 2389 (RPMI); assay: as above
Protocol: as §1

[12] = tested on: Candida glabrata ZIM 2344 (RPMI); assay: as above
Protocol: as §1

[13] = tested on: Candida glabrata ZIM 2365 (RPMI); assay: Bliss independence sum of statistically significant ΔE (measured minus predicted growth inhibition) over checkerboard surface (fraction (sum of ΔE; 1 = 100%)); higher = more synergy
[14] = tested on: Candida glabrata ZIM 2382 (RPMI); assay: as above
[15] = tested on: Candida glabrata ZIM 2369 (RPMI); assay: as above
[16] = tested on: Saccharomyces cerevisiae ZIM 2558 (RPMI); assay: as above
[17] = tested on: Saccharomyces cerevisiae ZIM 2255 (RPMI); assay: as above
[18] = tested on: Saccharomyces cerevisiae ZIM 2260 (RPMI); assay: as above
[19] = tested on: Saccharomyces cerevisiae ZIM 2269 (RPMI); assay: as above
[20] = tested on: Saccharomyces cerevisiae ZIM 2566 (RPMI); assay: as above
[21] = tested on: Candida glabrata ZIM 2385 (RPMI); assay: as above
[22] = tested on: Saccharomyces cerevisiae ZIM 2247 (RPMI); assay: as above
[23] = tested on: Candida glabrata ZIM 2389 (RPMI); assay: as above
[24] = tested on: Candida glabrata ZIM 2344 (RPMI); assay: as above
[25] = tested on: Saccharomyces cerevisiae ZIM 2260 (RPMI); assay: FICI minimum (fractional inhibitory concentration index, Loewe) (dimensionless); higher = less synergy / more antagonism
Protocol: as §1

[26] = tested on: Candida glabrata ZIM 2385 (RPMI); assay: as above
Protocol: as §1

Row | Structure (SMILES) | FICI maximum [1] | FICI maximum [2] | FICI maximum [3] | FICI maximum [4] | FICI maximum [5] | FICI maximum [6] | FICI maximum [7] | FICI maximum [8] | FICI maximum [9] | FICI maximum [10] | FICI maximum [11] | FICI maximum [12] | Bliss independence sum [13] | Bliss independence sum [14] | Bliss independence sum [15] | Bliss independence sum [16] | Bliss independence sum [17] | Bliss independence sum [18] | Bliss independence sum [19] | Bliss independence sum [20] | Bliss independence sum [21] | Bliss independence sum [22] | Bliss independence sum [23] | Bliss independence sum [24] | FICI minimum [25] | FICI minimum [26]
1 | COc1c(C)c2c(c(O)c1C/C=C(\C)CCC(=O)O)C(=O)OC2 [mycophenolic acid] + C[C@@H]1[C@H](O)[C@@H](C)/C=C/C=C/C=C/C=C/C=C/C=C/C=C/[C@H](O[C@@H]2O[C@H](C)[C@@H](O)[C@H](N)[C@@H]2O)C[C@@H]2O[C@](O)(C[C@@H](O)C[C@@H](O)[C@H](O)CC[C@@H](O)C[C@@H](O)CC(=O)O[C@H]1C)C[C@H](O)[C@H]2C(=O)O [amphotericin B] | 1.02 | 1.06 | 1.12 | 1.03 | 1.25 | 1.04 | 1.25 | 1.07 | 1.06 | 1.53 | 1.01 | 1.06 | 6.59 | 1.76 | 0.709 | 3.61 | -0.43 | 3.32 | 6.09 | -0.484 | 2.79 | -2.18 | 4.37 | 4.74 | 0.58 | 0.5
2 | COc1c(C)c2c(c(O)c1C/C=C(\C)CCC(=O)O)C(=O)OC2 [mycophenolic acid] + OC(Cn1cncn1)(Cn1cncn1)c1ccc(F)cc1F [fluconazole] | 8.5 | 4.25 | 4.25 | 4.25 | 2.02 | 2.02 | 2.25 | 2.27 | 2.25 | 2.53 | 2.25 | 1.25 | -4.84 | -1.7 | -2.4 | -8.75 | -3.66 | -1.55 | -3.9 | -0.316 | -0.722 | -2.82 | 1.41 | 6.94 | 0.66 | 0.508
3 | C=CC[C@@H]1/C=C(\C)C[C@H](C)C[C@H](OC)[C@H]2O[C@@](O)(C(=O)C(=O)N3CCCC[C@H]3C(=O)O[C@H](/C(C)=C/[C@@H]3CC[C@@H](O)[C@H](OC)C3)[C@H](C)[C@@H](O)CC1=O)[C@H](C)C[C@@H]2OC [tacrolimus] + CCC(C)n1ncn(-c2ccc(N3CCN(c4ccc(OCC5COC(Cn6cncn6)(c6ccc(Cl)cc6Cl)O5)cc4)CC3)cc2)c1=O [itraconazole] | 1.01 | 1 | 0.5 | 0.51 | 0.502 | 0.5 | 2.5 | 1 | 0.5 | 0.52 | 0.126 | 0.5 | 2.36 | 1.94 | 3.73 | 8.75 | 7.07 | 10.8 | 4.75 | 9.53 | 5.63 | 6.82 | 8.47 | 5.44 | 0.251 | 0.0725
4 | C=CC[C@@H]1/C=C(\C)C[C@H](C)C[C@H](OC)[C@H]2O[C@@](O)(C(=O)C(=O)N3CCCC[C@H]3C(=O)O[C@H](/C(C)=C/[C@@H]3CC[C@@H](O)[C@H](OC)C3)[C@H](C)[C@@H](O)CC1=O)[C@H](C)C[C@@H]2OC [tacrolimus] + C[C@@H]1[C@H](O)[C@@H](C)/C=C/C=C/C=C/C=C/C=C/C=C/C=C/[C@H](O[C@@H]2O[C@H](C)[C@@H](O)[C@H](N)[C@@H]2O)C[C@@H]2O[C@](O)(C[C@@H](O)C[C@@H](O)[C@H](O)CC[C@@H](O)C[C@@H](O)CC(=O)O[C@H]1C)C[C@H](O)[C@H]2C(=O)O [amphotericin B] | 0.51 | 1.01 | 1.25 | 0.501 | 0.508 | 0.5 | 0.501 | 0.625 | 1 | 0.126 | 1 | 1 | 2.51 | 0.265 | 4.67 | 9.97 | 11.4 | 9.87 | 19.1 | 8.22 | 7.14 | 20.9 | 0.693 | 7.88 | 0.251 | 0.281
5 | C=CC[C@@H]1/C=C(\C)C[C@H](C)C[C@H](OC)[C@H]2O[C@@](O)(C(=O)C(=O)N3CCCC[C@H]3C(=O)O[C@H](/C(C)=C/[C@@H]3CC[C@@H](O)[C@H](OC)C3)[C@H](C)[C@@H](O)CC1=O)[C@H](C)C[C@@H]2OC [tacrolimus] + OC(Cn1cncn1)(Cn1cncn1)c1ccc(F)cc1F [fluconazole] | 1 | 0.5 | 1 | 1 | 1 | 1 | 1 | 1 | 1.01 | 1 | 1 | 0.5 | 2.21 | 1.68 | 1.98 | 1.84 | 2.75 | 6.04 | 8.35 | 0.935 | 5.34 | 8.81 | 8 | 4.23 | 0.135 | 1
